The values below come from paper PMC6429262, “Design and Synthesis of Novel Anti-Proliferative Emodin Derivatives and Studies on their Cell Cycle Arrest, Apoptosis Pathway and Migration” (Molecules, 2019).

The subject of one assay is L02 cells. The assay can be described thus: Cytotoxic activity against human normal liver cells (L02). It counts as cell-based. The following applies: Homo sapiens, L02, human normal liver L02 cells.
The subject of another assay is HepG2 cells. Description: CellTiter-Glo Luminescent Cell Viability Assay, HepG2. It counts as cell-based, human. The settings on record: HepG2 cells, 48 h, mean of three independent experiments. Here is the method: (§1) The in vitro anti-proliferative activities of all the novel synthesized compounds were evaluated against HepG2 cells and MCF-7 cells by CellTiter-Glo® Luminescent Cell Viability Assay, using paclitaxel (a clinically used drug) as a positive control. Emodin (1) and compound 2 were also included for comparison.
(§2) HepG2 cells and MCF-7 cells were purchased from American Type Culture Collection (ATCC, Manassas, VA, USA). Cells were cultured in T75 flask (430641, Corning, New York, NY, USA), supplemented with high-glucose DMEM medium (Dulbecco’s modified Eagle’s medium, 11965-092, Gibco, New York, NY, USA) containing 10% Fetal bovine serum (FBS) and 1% penicillin (100 units/mL)-streptomycin (100 µg/mL) in a humidified incubator at 37 °C under 5% CO2 and 95% relative humidity (RH) atmosphere. The cells were harvested for metabolomics experiments using cell scrapers.
(§3) HepG2 cells and MCF-7 cells in 40 µL DMEM supplemented with 10% FBS were seeded at a density of 500 cells/well in 384-well cell culture plate (3570, Corning), respectively. After 24 h, the medium was substituted with fresh medium containing various sample solutions in DMSO (0.5%, v/v) at a dose range of 0.14–100 µM with 3-fold serial dilutions, and cells were cultured for another 48 h. Cells were cultured in medium without samples but 0.5% DMSO served as a control. All measurements were determined in triplicate for each treatment. After the sample treatment for 48 h, 20 µL CellTiter-Glo (G7573, Promega, Fitchburg, WI, USA) was added to each well containing cells and the contents were mixed for 2 min on an orbital shaker to induce cell lysis. The plates were then incubated at room temperature for 20 min to stabilize the luminescent signal. The luminescence was recorded on an Envision 2014 (Perkin Elmer, Waltham, MA, UAS). The IC50 values represented the samples’ concentrations required to inhibit 50% of cell proliferation and were calculated from a calibration curve by linear regression using GraphPad Prism 7.0 software (GraphPad Software, San Diego, CA, USA).

The subject of the next assay is MCF-7 cells. The assay can be described thus: CellTiter-Glo Luminescent Cell Viability Assay, MCF-7. It counts as cell-based, human. The following applies: for IC50: MCF-7 cells, 48 h, mean of three independent experiments. Here is the method:
as §1, §2, §3

`Cc1cc(O)c2c(c1)C(=O)c1cc(OCCOC(=O)[C@@H](C)N)cc(O)c1C2=O` [Compound 3b, (R)-1-(2-(4,5-Dihydroxy-7-methyl-9,10-dioxo-9,10-dihydroanthracen-2-yloxy)ethoxy)-1-oxopropan-2-aminium 2,2,2-trifluoroacetate]: the IC50 with L02 cells worked out at 33.6 ± 0.36 µM; with HepG2 cells (Homo sapiens, HepG2, 48 h), 8.22 ± 0.13 µM; in the assay with MCF-7 cells (Homo sapiens, MCF7, 48 h), 8.99 ± 0.64 µM.
In the same order, the values of `Cc1cc(O)c2c(c1)C(=O)c1cc(OCCOC(=O)[C@H](C)N)cc(O)c1C2=O` [Compound 3c, (S)-1-(2-(4,5-Dihydroxy-7-methyl-9,10-dioxo-9,10-dihydroanthracen-2-yloxy)ethoxy)-1-oxopropan-2-aminium 2,2,2-trifluoroacetate] are 37.3 ± 0.78 µM, 9.52 ± 0.22 µM and 10.2 ± 0.96 µM.
As for `Cc1cc(O)c2c(c1)C(=O)c1cc(OCCOC(=O)[C@@H](N)Cc3ccccc3)cc(O)c1C2=O` [Compound 3x, (S)-1-(2-(4,5-Dihydroxy-7-methyl-9,10-dioxo-9,10-dihydroanthracen-2-yloxy)ethoxy)-1-oxo-3-phenyl-propan-2-aminium 2,2,2-trifluoroacetate], the IC50 turned out to be 16.2 ± 0.36 µM with HepG2 cells (Homo sapiens, HepG2, 48 h) and 18.1 ± 0.32 µM in the assay on MCF-7 cells (Homo sapiens, MCF7, 48 h).
Consider `Cc1cc(O)c2c(c1)C(=O)c1cc(OCCOC(=O)[C@H](N)Cc3ccc(O)cc3)cc(O)c1C2=O` [Compound 3y, (R)-1-(2-(4,5-Dihydroxy-7-methyl-9,10-dioxo-9,10-dihydroanthracen-2-yloxy)ethoxy)-3-(4-hydroxyphenyl)-1-oxopropan-2-aminium 2,2,2-trifluoroacetate], for which the half-inhibitory concentration (IC50) worked out at 20.3 ± 1.4 µM with HepG2 cells (Homo sapiens, HepG2, 48 h) and 38.3 ± 1.92 µM in the assay on MCF-7 cells (Homo sapiens, MCF7, 48 h).
On to `CN[C@H](C)C(=O)OCCOc1cc(O)c2c(c1)C(=O)c1cc(C)cc(O)c1C2=O` [Compound 4a, (R)-1-(2-(4,5-Dihydroxy-7-methyl-9,10-dioxo-9,10-dihydroanthracen-2-yloxy)ethoxy)-N-methyl-1-oxo-propan-2-aminium 2,2,2-trifluoroacetate], for which the half-maximal inhibitory concentration (IC50) worked out at 13.7 ± 0.89 µM in the assay with HepG2 cells (Homo sapiens, HepG2, 48 h) and 23.2 ± 0.33 µM with MCF-7 cells (Homo sapiens, MCF7, 48 h).
Take `CN[C@@H](C)C(=O)OCCOc1cc(O)c2c(c1)C(=O)c1cc(C)cc(O)c1C2=O.O=C(O)C(F)(F)F` [Compound 4b, (S)-1-(2-(4,5-Dihydroxy-7-methyl-9,10-dioxo-9,10-dihydroanthracen-2-yloxy)ethoxy)-N-methyl-1-oxo-propan-2-aminium 2,2,2-trifluoroacetate]: the IC50 in the assay with HepG2 cells (Homo sapiens, HepG2, 48 h) was 40 ± 2.85 µM; in the assay on MCF-7 cells (Homo sapiens, MCF7, 48 h) it was 68.8 ± 2.25 µM. For the same molecule, the “activity reduction compared to emodin (1)” value in the assay with MCF-7 cells (MCF-7 cell lines) is 6 fold.
With `Cc1cc(O)c2c(c1)C(=O)c1cc(OCCOC(=O)[C@@H](C)N(C)C)cc(O)c1C2=O` [Compound 5a, (R)-1-(2-(4,5-Dihydroxy-7-methyl-9,10-dioxo-9,10-dihydroanthracen-2-yloxy)ethoxy)-N,N-dimethyl-1-oxo-propan-2-aminium 2,2,2-trifluoroacetate], the IC50 was 18.1 ± 2.79 µM in the assay with HepG2 cells (Homo sapiens, HepG2, 48 h) and 25.2 ± 1.92 µM in the assay with MCF-7 cells (Homo sapiens, MCF7, 48 h).
As to `Cc1cc(O)c2c(c1)C(=O)c1cc(OCCOC(=O)[C@H](C)N(C)C)cc(O)c1C2=O` [Compound 5b, (S)-1-(2-(4,5-Dihydroxy-7-methyl-9,10-dioxo-9,10-dihydroanthracen-2-yloxy)ethoxy)-N,N-dimethyl-1-oxo-propan-2-aminium 2,2,2-trifluoroacetate], the IC50 in the assay with HepG2 cells (Homo sapiens, HepG2, 48 h) is 18.6 ± 2.07 µM; in the assay on MCF-7 cells (Homo sapiens, MCF7, 48 h), 16.2 ± 0.67 µM.
Regarding `Cc1cc(O)c2c(c1)C(=O)c1cc(OCCCOC(=O)[C@H](C)N)cc(O)c1C2=O` [Compound 7b, (S)-1-(3-(4,5-Dihydroxy-7-methyl-9,10-dioxo-9,10-dihydroanthracen-2-yloxy)propoxy)-1-oxopropan-2-aminium 2,2,2-trifluoroacetate], the half-maximal inhibitory concentration (IC50) in the assay on HepG2 cells (Homo sapiens, HepG2, 48 h) was 6.47 ± 0.21 µM; with MCF-7 cells (Homo sapiens, MCF7, 48 h) it was 6.47 ± 0.18 µM.
The corresponding values for `Cc1cc(O)c2c(c1)C(=O)c1cc(OCCCCOC(=O)[C@@H](C)N)cc(O)c1C2=O` [Compound 7c, (R)-1-(4-(4,5-Dihydroxy-7-methyl-9,10-dioxo-9,10-dihydroanthracen-2-yloxy)butoxy)-1-oxopropan-2-aminium 2,2,2-trifluoroacetate] are 11.4 ± 1.69 µM and 12.7 ± 0.55 µM.
Regarding `Cc1cc(O)c2c(c1)C(=O)c1cc(OCCCCOC(=O)[C@H](C)N)cc(O)c1C2=O` [Compound 7d, (S)-1-(4-(4,5-Dihydroxy-7-methyl-9,10-dioxo-9,10-dihydroanthracen-2-yloxy)butoxy)-1-oxopropan-2-aminium 2,2,2-trifluoroacetate], the IC50 with HepG2 cells (Homo sapiens, HepG2, 48 h) stood at 11 ± 1.47 µM; in the assay on MCF-7 cells (Homo sapiens, MCF7, 48 h), 14.9 ± 0.57 µM.
As for `Cc1cc(O)c2c(c1)C(=O)c1cc(OCCCCCOC(=O)[C@@H](C)N)cc(O)c1C2=O` [Compound 7e, (R)-1-(5-(4,5-Dihydroxy-7-methyl-9,10-dioxo-9,10-dihydroanthracen-2-yloxy)pentyloxy)-1-oxopropan-2-aminium 2,2,2-trifluoroacetate], the IC50 in the assay with L02 cells was 27.7 ± 0.54 µM; with HepG2 cells (Homo sapiens, HepG2, 48 h), 8.58 ± 0.77 µM; in the assay on MCF-7 cells (Homo sapiens, MCF7, 48 h), 9.11 ± 0.67 µM.
The corresponding values for `Cc1cc(O)c2c(c1)C(=O)c1cc(OCCCCCOC(=O)[C@H](C)N)cc(O)c1C2=O` [Compound 7f, (S)-1-(5-(4,5-Dihydroxy-7-methyl-9,10-dioxo-9,10-dihydroanthracen-2-yloxy)pentyloxy)-1-oxopropan-2-aminium 2,2,2-trifluoroacetate] are 24.3 ± 0.68 µM, 10.6 ± 0.97 µM and 15.8 ± 1.45 µM.
Take `Cc1cc(O)c2c(c1)C(=O)c1cc(OCCOCCOC(=O)[C@@H](C)N)cc(O)c1C2=O` [Compound 7g, (R)-1-(2-(2-(4,5-Dihydroxy-7-methyl-9,10-dioxo-9,10-dihydroanthracen-2-yloxy)ethoxy)ethoxy)-1-oxo-propan-2-aminium 2,2,2-trifluoroacetate]: the half-maximal inhibitory concentration (IC50) with HepG2 cells (Homo sapiens, HepG2, 48 h) was 15.2 ± 0.66 µM; with MCF-7 cells (Homo sapiens, MCF7, 48 h) it was 12.6 ± 0.46 µM.
For `Cc1cc(O)c2c(c1)C(=O)c1cc(OCCOCCOC(=O)[C@H](C)N)cc(O)c1C2=O` [Compound 7h, (S)-1-(2-(2-(4,5-Dihydroxy-7-methyl-9,10-dioxo-9,10-dihydroanthracen-2-yloxy)ethoxy)ethoxy)-1-oxo-propan-2-aminium 2,2,2-trifluoroacetate], the IC50 was 11.4 ± 0.47 µM with HepG2 cells (Homo sapiens, HepG2, 48 h) and 12.5 ± 0.44 µM in the assay on MCF-7 cells (Homo sapiens, MCF7, 48 h).
`Cc1cc(O)c2c(c1)C(=O)c1cc(OCCOCCOCCOC(=O)[C@@H](C)N)cc(O)c1C2=O` [Compound 7i, (R)-1-(2-(2-(2-(4,5-Dihydroxy-7-methyl-9,10-dioxo-9,10-dihydroanthracen-2-yloxy)ethoxy)ethoxy)ethoxy)-1-oxopropan-2-aminium 2,2,2-trifluoroacetate]: the concentration for half-maximal inhibition (IC50) in the assay with HepG2 cells (Homo sapiens, HepG2, 48 h) worked out at 28.7 ± 0.87 µM; with MCF-7 cells (Homo sapiens, MCF7, 48 h), 20.8 ± 1.87 µM.
Take `Cc1cc(O)c2c(c1)C(=O)c1cc(OCCOCCOCCOC(=O)[C@H](C)N)cc(O)c1C2=O` [Compound 7j, (S)-1-(2-(2-(2-(4,5-Dihydroxy-7-methyl-9,10-dioxo-9,10-dihydroanthracen-2-yloxy)ethoxy)ethoxy)ethoxy)-1-oxopropan-2-aminium 2,2,2-trifluoroacetate]: the 50% inhibitory concentration (IC50) came to 31.9 ± 2.77 µM with HepG2 cells (Homo sapiens, HepG2, 48 h) and 25.6 ± 0.58 µM with MCF-7 cells (Homo sapiens, MCF7, 48 h).
With `Cc1cc(O)c2c(c1)C(=O)c1cc(OCCOCCOCCOCCOC(=O)[C@@H](C)N)cc(O)c1C2=O` [Compound 7k, (R)-1-(4,5-Dihydroxy-7-methyl-9,10-dioxo-9,10-dihydroanthracen-2-yloxy)-13-oxo-3,6,9,12-tetraoxapenta-decan-14-aminium 2,2,2-trifluoroacetate], the concentration for half-maximal inhibition (IC50) was 37.2 ± 2.44 µM with HepG2 cells (Homo sapiens, HepG2, 48 h) and 37.8 ± 2.44 µM in the assay on MCF-7 cells (Homo sapiens, MCF7, 48 h).
Regarding `Cc1cc(O)c2c(c1)C(=O)c1cc(OCCOCCOCCOCCOC(=O)[C@H](C)N)cc(O)c1C2=O` [Compound 7l, (S)-1-(4,5-Dihydroxy-7-methyl-9,10-dioxo-9,10-dihydroanthracen-2-yloxy)-13-oxo-3,6,9,12-tetraoxa-pentadecan-14-aminium 2,2,2-trifluoroacetate], the IC50 with HepG2 cells (Homo sapiens, HepG2, 48 h) worked out at 60.6 ± 4.26 µM; in the assay with MCF-7 cells (Homo sapiens, MCF7, 48 h), 41.8 ± 2.24 µM.
`CC(=O)O[C@H]1C(=O)[C@@]2(C)[C@H]([C@H](OC(=O)c3ccccc3)[C@]3(O)C[C@H](OC(=O)[C@H](O)[C@@H](NC(=O)c4ccccc4)c4ccccc4)C(C)=C1C3(C)C)[C@]1(OC(C)=O)CO[C@@H]1C[C@@H]2O` [Paclitaxel, reference compound]: the 50% inhibitory concentration (IC50) came out at 10.3 ± 0.26 µM in the assay with HepG2 cells (Homo sapiens, HepG2, 48 h) and 4.89 ± 0.11 µM in the assay on MCF-7 cells (Homo sapiens, MCF7, 48 h).
Regarding “(S)-1-(2-(4,5-Dihydroxy-7-methyl-9,10-dioxo-9,10-dihydroanthracen-2-yloxy)ethoxy)-3-(4-hydroxyphenyl)-1-oxopropan-2-aminium 2,2,2-trifluoroacetate [Compound 3z]”, the values for the IC50 with HepG2 cells and in the assay on MCF-7 cells were 14.1 ± 1.22 µM and 17.3 ± 0.26 µM, respectively.
